In patent US4075339A, “Biologically active compounds” (University of Illinois Foundation, priority 1976, dated 1978):
≈ marks a conversion by molar mass, not a printed value.

Tests used:
[1] = system: Reverse Transcriptase of Rauscher Leukemia Virus; assay: Inhibition of Reverse Transcriptase of Rauscher Leukemia Virus; type: biochemical; parameters: Reverse Transcriptase of Rauscher Leukemia Virus % Inhibition: concentration or dose not given beside the values; conditions: for Reverse Transcriptase of Rauscher Leukemia Virus % Inhibition: 37° C. for 90 minutes (Table 3); for Reverse transcriptase activity, cpm: 37° C. for 90 minutes, control 5396 cpm; for RLV Reverse Transcriptase % Inhibition: at a concentration of 0.25 μmole/ml (Table 4), 90 min
Protocol: *(The reverse transcriptase activity was measured at 37° C. for 90
(§1) Table 4, below, relates to the activity of compounds of Examples VIII through XVIII as bacterial RNA polymerase inhibitors and as inhibitors of reverse transcriptase when tested in the manner the compounds of Examples I through V as related, supra, in Tables 2 and 3.
**At a concentration of 0.25 μmole/ml.

E. coli RNA Polymerase = E. coli RNA Polymerase (Escherichia coli, UniProt P0A8V2); assay: E. coli RNA Polymerase Inhibition; type: biochemical; conditions: 0.25 h; for remaining activity at 500 µM: 0.5 μM/ml of compound, room temperature, 15 minutes, control = 100; for inhibition at 500 µM: at a concentration of 0.5 μmole/ml (Table 4)
Chain of E. coli RNA Polymerase (P0A8V2 whole entry): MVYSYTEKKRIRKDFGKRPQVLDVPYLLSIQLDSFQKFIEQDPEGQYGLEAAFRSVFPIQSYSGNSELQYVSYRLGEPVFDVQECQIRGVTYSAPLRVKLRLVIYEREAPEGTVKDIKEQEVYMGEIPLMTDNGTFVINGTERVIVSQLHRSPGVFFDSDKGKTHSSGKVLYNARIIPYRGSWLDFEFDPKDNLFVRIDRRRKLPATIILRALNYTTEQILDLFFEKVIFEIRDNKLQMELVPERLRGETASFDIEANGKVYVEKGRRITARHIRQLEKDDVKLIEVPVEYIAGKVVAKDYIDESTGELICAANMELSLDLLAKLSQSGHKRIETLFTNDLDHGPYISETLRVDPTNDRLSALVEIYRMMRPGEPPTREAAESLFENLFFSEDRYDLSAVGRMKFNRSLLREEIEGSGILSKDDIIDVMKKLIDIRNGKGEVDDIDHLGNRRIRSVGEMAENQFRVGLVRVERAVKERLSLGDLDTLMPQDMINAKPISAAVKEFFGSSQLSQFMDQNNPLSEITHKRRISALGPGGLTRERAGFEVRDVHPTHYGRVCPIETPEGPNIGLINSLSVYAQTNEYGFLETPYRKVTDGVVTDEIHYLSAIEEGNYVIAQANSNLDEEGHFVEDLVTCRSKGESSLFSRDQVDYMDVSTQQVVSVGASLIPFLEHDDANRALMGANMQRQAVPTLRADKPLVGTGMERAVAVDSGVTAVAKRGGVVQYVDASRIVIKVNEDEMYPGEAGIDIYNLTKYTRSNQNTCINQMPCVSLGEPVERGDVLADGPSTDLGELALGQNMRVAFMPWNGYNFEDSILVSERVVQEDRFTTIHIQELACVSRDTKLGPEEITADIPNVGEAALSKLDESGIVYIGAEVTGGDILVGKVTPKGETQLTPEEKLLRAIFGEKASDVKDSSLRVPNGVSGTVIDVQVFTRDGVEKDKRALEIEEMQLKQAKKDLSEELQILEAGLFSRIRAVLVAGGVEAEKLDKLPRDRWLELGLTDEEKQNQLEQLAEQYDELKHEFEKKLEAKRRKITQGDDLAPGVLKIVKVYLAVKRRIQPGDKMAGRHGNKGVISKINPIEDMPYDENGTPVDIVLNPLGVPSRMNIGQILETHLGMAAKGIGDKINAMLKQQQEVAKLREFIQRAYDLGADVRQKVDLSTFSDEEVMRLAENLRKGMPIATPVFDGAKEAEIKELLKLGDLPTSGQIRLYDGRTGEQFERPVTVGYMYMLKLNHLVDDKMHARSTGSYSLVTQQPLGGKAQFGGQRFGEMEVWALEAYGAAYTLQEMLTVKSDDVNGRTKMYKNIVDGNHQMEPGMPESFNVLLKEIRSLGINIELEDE
Chain of E. coli RNA Polymerase (P0A8T7 whole entry partner): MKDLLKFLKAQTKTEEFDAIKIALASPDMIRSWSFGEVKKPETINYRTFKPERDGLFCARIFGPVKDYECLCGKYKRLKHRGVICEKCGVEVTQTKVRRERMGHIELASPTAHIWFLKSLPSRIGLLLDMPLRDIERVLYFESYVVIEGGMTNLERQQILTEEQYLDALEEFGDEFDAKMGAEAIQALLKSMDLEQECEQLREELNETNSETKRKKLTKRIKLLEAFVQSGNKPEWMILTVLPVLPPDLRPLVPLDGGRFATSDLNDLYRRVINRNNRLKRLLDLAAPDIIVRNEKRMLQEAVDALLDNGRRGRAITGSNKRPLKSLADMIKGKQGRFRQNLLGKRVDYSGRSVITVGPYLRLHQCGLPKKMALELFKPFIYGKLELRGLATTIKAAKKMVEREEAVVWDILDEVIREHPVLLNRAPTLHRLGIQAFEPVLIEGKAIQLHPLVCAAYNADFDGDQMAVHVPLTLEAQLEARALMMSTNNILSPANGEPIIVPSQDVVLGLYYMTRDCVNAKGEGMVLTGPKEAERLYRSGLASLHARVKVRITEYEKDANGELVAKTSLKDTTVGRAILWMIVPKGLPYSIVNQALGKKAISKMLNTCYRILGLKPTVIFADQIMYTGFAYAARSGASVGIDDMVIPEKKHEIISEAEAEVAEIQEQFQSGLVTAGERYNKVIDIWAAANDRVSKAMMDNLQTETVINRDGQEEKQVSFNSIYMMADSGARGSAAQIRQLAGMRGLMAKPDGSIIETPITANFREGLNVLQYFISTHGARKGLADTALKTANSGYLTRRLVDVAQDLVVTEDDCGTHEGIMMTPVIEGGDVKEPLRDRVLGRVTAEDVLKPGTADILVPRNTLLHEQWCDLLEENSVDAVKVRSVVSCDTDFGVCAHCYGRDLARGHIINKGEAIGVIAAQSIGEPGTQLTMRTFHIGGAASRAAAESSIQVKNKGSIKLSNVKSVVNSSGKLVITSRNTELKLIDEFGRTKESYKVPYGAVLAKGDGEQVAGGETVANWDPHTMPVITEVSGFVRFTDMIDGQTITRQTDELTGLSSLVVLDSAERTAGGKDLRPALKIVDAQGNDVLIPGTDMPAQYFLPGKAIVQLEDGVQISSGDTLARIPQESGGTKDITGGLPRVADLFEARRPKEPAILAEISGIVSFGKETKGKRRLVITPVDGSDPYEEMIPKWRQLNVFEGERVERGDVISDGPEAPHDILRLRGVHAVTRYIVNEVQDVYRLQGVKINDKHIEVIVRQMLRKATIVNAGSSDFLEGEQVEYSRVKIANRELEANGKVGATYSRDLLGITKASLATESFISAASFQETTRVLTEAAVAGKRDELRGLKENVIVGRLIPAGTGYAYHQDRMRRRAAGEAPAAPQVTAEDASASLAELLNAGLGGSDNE
Chain of E. coli RNA Polymerase (P0A7Z4 whole entry partner): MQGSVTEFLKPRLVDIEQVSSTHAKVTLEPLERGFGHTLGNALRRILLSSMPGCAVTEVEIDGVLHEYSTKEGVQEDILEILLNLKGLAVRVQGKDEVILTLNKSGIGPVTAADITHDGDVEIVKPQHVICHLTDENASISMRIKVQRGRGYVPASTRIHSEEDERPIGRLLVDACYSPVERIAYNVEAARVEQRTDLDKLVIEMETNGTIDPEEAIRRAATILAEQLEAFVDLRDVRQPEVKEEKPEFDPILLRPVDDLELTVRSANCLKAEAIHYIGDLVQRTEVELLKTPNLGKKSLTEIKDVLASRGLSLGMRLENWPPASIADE
Chain of E. coli RNA Polymerase (P0A800 whole entry partner): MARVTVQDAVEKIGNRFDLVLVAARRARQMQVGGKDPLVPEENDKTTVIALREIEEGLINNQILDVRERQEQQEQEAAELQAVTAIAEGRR
Protocol: The assay mixtures contained, in a total volume of 0.25 ml: (Tris)HCl
buffer, pH 7.9, 5 μmoles; MgCl2, 1 μmole; mercaptoethanol, 3
μmoles; MpCl2, 0.25 μmole: GTP, UTP, and CTP, 0.1 μmole
polymerase, 0.5 units; and […] of compound. Reactions were run a
room temperature for 15 minutes.
as §1
*At a concentration of 0.5 μmole/ml.

St. Faecalis = assay: Bacterial inhibition, MIC in brain heart infusion broth; type: cell-based; conditions: Enterococcus faecalis, read-out: MIC (minimal inhibitory concentration)
Source text: (§2) ^a Minimal inhibitory concentration in brain heart infusion broth.

S. Hemolyticus = assay: as above; type: cell-based; conditions: read-out: MIC (minimal inhibitory concentration)
Source text: as §2

S. aureus = assay: as above; type: cell-based; conditions: Staphylococcus aureus, read-out: MIC (minimal inhibitory concentration)
Source text: as §2

P. vulgaris = assay: as above; type: cell-based; conditions: Proteus vulgaris, read-out: MIC (minimal inhibitory concentration)
Source text: as §2

D. penumoniae = assay: as above; type: cell-based; conditions: read-out: MIC (minimal inhibitory concentration)
Source text: as §2

E. coli = assay: as above; type: cell-based; conditions: Escherichia coli, read-out: MIC (minimal inhibitory concentration)
Source text: as §2

K. pneumoniae = assay: as above; type: cell-based; conditions: Klebsiella pneumoniae, read-out: MIC (minimal inhibitory concentration)
Source text: as §2

Ps. aeruginosa = assay: as above; type: cell-based; conditions: Pseudomonas aeruginosa, read-out: MIC (minimal inhibitory concentration)
Source text: as §2

With COC1=C2CC(C)CC(OC)C(O)C(C)/C=C(\C)C(OC(N)=O)C(OC)/C=C\C=C(/C)C(=O)NC(=C(C=NC(C)(C)C)C1=O)C2=O (stereo not shown) [Example I] the “Reverse Transcriptase of Rauscher Leukemia Virus % Inhibition” value [1] was 93.0%, the “Reverse transcriptase activity, cpm” value [1] was 376 cpm and the remaining activity at 500 µM (E. coli RNA Polymerase) was 99%. The MIC (St. Faecalis) was over 500 µg/mL, the MIC (S. Hemolyticus) was 250 µg/mL (≈ 388 µM) and the MIC (S. aureus) was 500 µg/mL (≈ 777 µM). The MIC (P. vulgaris) was 500 µg/mL (≈ 777 µM), the MIC (D. penumoniae) was 250 µg/mL (≈ 388 µM) and the MIC (E. coli) was 500 µg/mL (≈ 777 µM). For the same compound, the MIC (K. pneumoniae) was 500 µg/mL (≈ 777 µM) and the MIC (Ps. aeruginosa) was 250 µg/mL (≈ 388 µM).
With COC1=C2CC(C)CC(OC)C(O)C(C)/C=C(\C)C(OC(N)=O)C(OC)/C=C\C=C(/C)C(=O)NC(=C(C=NOC(c3ccccc3)c3ccccc3)C1=O)C2=O (stereo not shown) [III] the “Reverse Transcriptase of Rauscher Leukemia Virus % Inhibition” value [1] was 98.6%, the “Reverse transcriptase activity, cpm” value [1] was 75 cpm and the remaining activity at 500 µM (E. coli RNA Polymerase) was 84%. For the same compound, the MIC (St. Faecalis) was over 500 µg/mL, the MIC (S. Hemolyticus) was 31.2 µg/mL (≈ 40.5 µM) and the MIC (S. aureus) was over 500 µg/mL. The MIC (P. vulgaris) was over 500 µg/mL, the MIC (D. penumoniae) was 62.5 µg/mL (≈ 81.2 µM) and the MIC (E. coli) was over 500 µg/mL. The MIC (K. pneumoniae) was over 500 µg/mL and the MIC (Ps. aeruginosa) was over 500 µg/mL.
For COC1=C2CC(C)CC(OC)C(O)C(C)/C=C(\C)C(OC(N)=O)C(OC)/C=C\C=C(/C)C(=O)NC(=C(C=NN3CCN(C)CC3)C1=O)C2=O (stereo not shown) [II], the “Reverse Transcriptase of Rauscher Leukemia Virus % Inhibition” value [1] was 93.4%, the “Reverse transcriptase activity, cpm” value [1] was 357 cpm and the remaining activity at 500 µM (E. coli RNA Polymerase) was 106%. The MIC (St. Faecalis) was over 500 µg/mL, the MIC (S. Hemolyticus) was 500 µg/mL (≈ 729 µM) and the MIC (S. aureus) was over 500 µg/mL. It also gave an MIC (P. vulgaris) of 500 µg/mL (≈ 729 µM), an MIC (D. penumoniae) of 500 µg/mL (≈ 729 µM) and an MIC (E. coli) of 500 µg/mL (≈ 729 µM). For the same compound, the MIC (K. pneumoniae) was 500 µg/mL (≈ 729 µM) and the MIC (Ps. aeruginosa) was 250 µg/mL (≈ 365 µM).
In the case of CCCCCCCCON=CC1=C2NC(=O)/C(C)=C/C=C\C(OC)C(OC(N)=O)/C(C)=C/C(C)C(O)C(OC)CC(C)CC(=C(OC)C1=O)C2=O (stereo not shown) [IV], the “Reverse Transcriptase of Rauscher Leukemia Virus % Inhibition” value [1] is reported as 94.4%, the “Reverse transcriptase activity, cpm” value [1] is reported as 303 cpm and the remaining activity at 500 µM (E. coli RNA Polymerase) is reported as 110%. It also gave an MIC (St. Faecalis) of over 500 µg/mL, an MIC (S. Hemolyticus) of 7.8 µg/mL (≈ 10.9 µM) and an MIC (S. aureus) of over 500 µg/mL. The MIC (P. vulgaris) was over 500 µg/mL, the MIC (D. penumoniae) was 7.8 µg/mL (≈ 10.9 µM) and the MIC (E. coli) was over 500 µg/mL. For the same compound, the MIC (K. pneumoniae) was over 500 µg/mL and the MIC (Ps. aeruginosa) was over 500 µg/mL.
COC1/C=C\C=C(/C)C(=O)Nc2cc3nc4ccccc4nc3c(c2O)CC(C)CC(OC)C(O)C(C)/C=C(\C)C1OC(N)=O (stereo not shown) [VIII, demethoxygeldanazine] was tested, and the “RLV Reverse Transcriptase % Inhibition” value [1] was 98% and the inhibition at 500 µM (E. coli RNA Polymerase) was 5 to 16%.
COC1=C2CC(C)CC(OC)C(O)C(C)/C=C(\C)C(OC(N)=O)C(OC)/C=C\C=C(/C)C(=O)NC(=C(C=NN3CCN(Cc4ccccc4)CC3)C1=O)C2=O (stereo not shown) [V] was tested, and the “Reverse Transcriptase of Rauscher Leukemia Virus % Inhibition” value [1] was 97.1%, the “Reverse transcriptase activity, cpm” value [1] was 154 cpm and the remaining activity at 500 µM (E. coli RNA Polymerase) was 88%. It also gave an MIC (St. Faecalis) of 500 µg/mL (≈ 656 µM), an MIC (S. Hemolyticus) of 125 µg/mL (≈ 164 µM) and an MIC (S. aureus) of 500 µg/mL (≈ 656 µM). The MIC (P. vulgaris) was 500 µg/mL (≈ 656 µM), the MIC (D. penumoniae) was 62.5 µg/mL (≈ 82 µM) and the MIC (E. coli) was 500 µg/mL (≈ 656 µM). The MIC (K. pneumoniae) was 500 µg/mL (≈ 656 µM) and the MIC (Ps. aeruginosa) was 250 µg/mL (≈ 328 µM).
In the case of COC1/C=C\C=C(/C)C(=O)Nc2cc3nc4ccc(C)cc4oc-3c(c2=O)CC(C)CC(OC)C(O)C(C)/C=C(\C)C1OC(N)=O (stereo not shown) [XIII], the “RLV Reverse Transcriptase % Inhibition” value [1] is reported as 77% and the inhibition at 500 µM (E. coli RNA Polymerase) is reported as 21%.
With COC1/C=C\C=C(/C)C(=O)Nc2cc3nc4cc(C)ccc4oc-3c(c2=O)CC(C)CC(OC)C(O)C(C)/C=C(\C)C1OC(N)=O (stereo not shown) [XII] the “RLV Reverse Transcriptase % Inhibition” value [1] was 89% and the inhibition at 500 µM (E. coli RNA Polymerase) was 9%.
COC1/C=C\C=C(/C)C(=O)Nc2cc3nc4cccc(C)c4oc-3c(c2=O)CC(C)CC(OC)C(O)C(C)/C=C(\C)C1OC(N)=O (stereo not shown) [XIV] was tested, and the “RLV Reverse Transcriptase % Inhibition” value [1] was 72% and the inhibition at 500 µM (E. coli RNA Polymerase) was 6%.
For COC1/C=C\C=C(/C)C(=O)Nc2cc3nc4ccccc4oc-3c(c2=O)CC(C)CC(OC)C(O)C(C)/C=C(\C)C1OC(N)=O (stereo not shown) [XI], the “RLV Reverse Transcriptase % Inhibition” value [1] was 98% and the inhibition at 500 µM (E. coli RNA Polymerase) was 61 to 67%.
In the case of COC(=O)[C@@H](NC(=O)c1ccc(C)c2oc3c4c(=O)c(cc-3nc12)NC(=O)/C(C)=C/C=C\C(OC)C(OC(N)=O)/C(C)=C/C(C)C(O)C(OC)CC(C)C4)[C@@H](C)O (stereo partly shown) [XVIII], the “RLV Reverse Transcriptase % Inhibition” value [1] is reported as 0%.
In the case of COC(=O)c1cccc2oc3c4c(=O)c(cc-3nc12)NC(=O)/C(C)=C/C=C\C(OC)C(OC(N)=O)/C(C)=C/C(C)C(O)C(OC)CC(C)C4 (stereo not shown) [XVII], the “RLV Reverse Transcriptase % Inhibition” value [1] is reported as 0%.
In the case of COC1/C=C\C=C(/C)C(=O)Nc2cc3nc4cc(Cl)ccc4oc-3c(c2=O)CC(C)CC(OC)C(O)C(C)/C=C(\C)C1OC(N)=O (stereo not shown) [XVI], the “RLV Reverse Transcriptase % Inhibition” value [1] is reported as 60%.
With COC1/C=C\C=C(/C)C(=O)Nc2cc3nc4cc(Br)ccc4oc-3c(c2=O)CC(C)CC(OC)C(O)C(C)/C=C(\C)C1OC(N)=O (stereo not shown) [XV] the “RLV Reverse Transcriptase % Inhibition” value [1] was 82 - 100% and the inhibition at 500 µM (E. coli RNA Polymerase) was 60%.
